Tests used:
[1] = target: bovine serum albumin (BSA) (Bos taurus, UniProt P02769); assay: Bovine serum albumin binding (tryptophan fluorescence quenching); conditions: for dynamic quenching constant Ksv / quenching constant kq: BSA 3 μM, citrate buffer pH 7.0; for association binding constant KBSA / n (number of binding sites for albumin): Scatchard equation
Description: The fluorescence emission spectra of BSA show intense fluorescence emission at 336 nm upon excitation at 280 nm. This is due to the presence of two tryptophan residues (Trp134 and Trp212). Fluorescence quenching data were analyzed to obtain various binding parameters for the interaction of complexes 4a–c with BSA.
The interaction of complexes with serum albumin was characterized by the Stern–Volmer constant Ksv and the quenching constant kq, which was calculated using the Stern–Volmer equation (Figure S4-2) together with the associate binding constant KBSA and the number of binding sites per albumin n determined from the Scatchard equations (Equation (6), Figure S4-3); the values are summarized in Table 6.
The BSA binding of complexes 4a–c was studied by tryptophan fluorescence emission quenching experiments using BSA (3 μM) in citrate buffer solution (containing 15 mM trisodium citrate and 150 mM sodium chloride at pH 7.0). The emission intensity quenching of BSA tryptophan residues at 336 nm was measured by increasing the concentration of the quencher complexes 4a–c. The concentration of the added complexes ranged from 0 to 0.2 mM. The fluorescence emission spectra were recorded in the 300–420 nm range and with an excitation wavelength of 280 nm. The values of the Stern–Volmer constant KSV (in M^−1), the BSA binding constant K (in M^−1) for the compound–BSA interaction and the BSA quenching constant kq (in M^−1 s^−1) have been calculated from the Stern–Volmer (Equations (2)–(4)). and Scatchard equations (Equation (6)):(6) ΔI/Io/[Q]=nK−KΔI/Io
The BSA binding constant K (in M^−1) can be calculated from the slope of the Scatchard plots, and the number of binding sites per albumin (n) is given by the ratio of the y intercept to the slope.

[2] = system: HEL cells (human lung fibroblast, normal); assay: MTT cytotoxicity assay, HEL; type: cell-based; conditions: 72 h
Description: The cytotoxicity study of the prepared copper(II) complexes was performed using the MTT assay on human cell lines—A549 (adenocarcinoma human alveolar basal epithelial cell line), HepG2 (human liver cancer cell line) and HEL (human lung fibroblast cell line, normal cells).
The cytotoxicity of the prepared copper(II) complexes in human cell lines was evaluated using the 3-(4,5-dimethylthiazol-2-yl)-2,5-diphenyltetrazolium bromide (MTT) assay following the protocol by Mosmann. Briefly, A549 (human lung epithelial cells, carcinoma), HepG2 (human liver epithelial cells, carcinoma) and HEL (human lung fibroblast cells, normal) cells were seeded in plastic 96-well plates at a density of 1.5–2 × 10^4 cells per well. […] After the treatment, the samples were washed with phosphate-buffered saline (PBS), followed by 4 h of incubation with 1 mg/mL of MTT. Subsequently, the MTT solution was removed, and the formed formazane solids were dissolved in dimethyl sulfoxide for 30 min. The photometric evaluation (at 540 nm and 690 nm) was carried out using an xMark™ Microplate Absorbance Spectrophotometer (Bio-Rad, Hercules, CA, USA) [88].
A549 (ATCC® CCL-185), HepG2 (ATCC® HB-8065) and HEL299 (ATCC® CCL-137) cells were obtained from Lambda Life (Bratislava, Slovakia). A549 cells were kept in Dulbecco’s Modified Eagle’s Medium (DMEM) supplemented with 10% fetal bovine serum (FBS) and 1% antibiotics (penicillin and streptomycin). HepG2 cells were kept in Williams medium supplemented with 10% fetal bovine serum (FBS) and 1% antibiotics (penicillin and streptomycin). HEL299 cells were kept in Minimum Essential Medium (MEM) supplemented with 10% fetal bovine serum (FBS), 1% antibiotics (penicillin and streptomycin) and 1% non-essential amino acids (NEAA). The cells were cultured in a humidified atmosphere of 5% CO2 at 37 °C. Once the cells reached approximately 80% confluence, they were harvested and subcultured after trypsin treatment.

ct-DNA = assay: DNA binding study by UV–Vis absorption titration; parameters: species or system calf; conditions: intraligand band ca. 370 nm on addition of ct-DNA
Description: The absorption spectra of complexes 4a–c (1 × 10^−[…]) were recorded in the presence of increasing amounts of ct-DNA. Intraligand absorption bands with λmax in the region 350 –380 nm were used to monitor the interaction of compounds with ct-DNA. The intraligand absorption value was chosen as λmax = […], so the absorbance of DNA would not interfere. The UV–Vis spectrum affected by DNA addition is shown for complexes 4a in Figure 3, and the UV–Vis spectra of other compounds are provided in the Supplementary Materials (Figure S3-1).
The DNA binding constants (Kb) of the complexes were determined by the Wolfe–Shimer equation (Equation (1)) and the respective plots (Figure 3 and Figure S3-1).
The interactions of prepared complexes 4a–c with ct-DNA have been studied by UV–Vis monitored titration. The ct-DNA solution was prepared by dissolving 6 mg of ct-DNA in 5 mL of citrate buffer (composed of 15 mM sodium citrate and 150 mM sodium chloride mixture solution, at pH = 7.0). The concentration of ct-DNA was then determined by UV–Vis spectroscopy with the molar absorption coefficient of ct-DNA at 260 nm (6600 M^−1cm^−1). The studied complexes were dissolved in DMSO, from which working solutions were prepared by dilution using citrate buffer solution. Increasing concentrations of ct-DNA were then added to a buffer/DMSO solution (<1% DMSO) of the corresponding complex (1 × 10^−[…]).
For the values of the binding strength of the interaction between the complex and the DNA molecule, binding constants Kb were calculated by the ratio of slope to the y intercept in the plots [DNA]/(εA-εf) compared to [DNA], according to the Wolfe–Shimer equation (Equation (1)):(1) [DNA]/(εA−εf)=[DNA]/(εb−εf)+1/Kb(εb−εf) where [DNA] is the concentration of DNA in base pairs, εf is the extinction coefficient of the free complex at the corresponding λmax, εA = Aobsd/[compound] and εb is the extinction coefficient of the complex in the fully bound form.

EB–DNA adduct (ct-DNA) = assay: EB–DNA displacement method (fluorescence quenching); type: binding, calf; conditions: for Stern–Volmer quenching constant Ksv / quenching rate constant kq: EB–DNA adduct; for quenching rate constant kq: τ0 = 23 × 10^−9 s; for Δ I/I0, EB–DNA fluorescence quenching: maximum quenching of EB–DNA emission
Text: Competitive-binding experiments using the ethidium bromide (EB) displacement method from DNA may provide another confirmation of the binding affinity of the complexes. EB is a well-known DNA intercalator able to form an EB–DNA adduct by its insertion between adjacent DNA base pairs. The EB–DNA adduct is distinguished by an intense fluorescence emission band at 615 nm after excitation at 540 nm. Introducing a compound with DNA affinity leads to emission intensity decrease of the EB–DNA adduct as a result of the competition between the measured compound and EB for the binding sites within DNA.
Competitive-binding experiments to determine the displacement of the intercalator ethidium bromide (EB) from the EB–DNA adduct were conducted by fluorescence spectroscopy. To prepare the EB–DNA adduct, 20 μM EB and 54 μM ct-DNA were added to citrate buffer (sodium citrate at 15 mM and sodium chloride at 150 mM at pH = 7.0). The addition of increasing concentrations of complexes 4a–c (c = 1 mM) to a solution of the EB–DNA complex corresponded to the intercalating effect of the complexes. The concentration of the added complexes ranged from 0 to 0.2 mM. Fluorescence emission spectra were recorded in the range of 550–800 nm with an excitation wavelength of 515 nm. […] Quenching of the EB–DNA emission band by the compounds 4a–c was calculated using the Stern–Volmer equation (Equations (2)–(4)).
The extent of the inner-filter effect can be roughly estimated with the following equation:(2) Icorr=Imeas×10^ε(λexc)cd/2×10^ε(λem)cd/2 where Icorr is the corrected intensity, Imeas is the measured intensity, c is the quencher concentration, d is the width of the cuvette (1 cm) and ε(λexc) and ε(λem) are the […] of the quencher at the excitation and the emission wavelength calculated from the UV–Vis spectra of the complexes.
The quenching of the EB–DNA emission band by compounds was calculated via the Stern–Volmer equation:(3) Io/I=1+kqτ0Q=1+KSVQ where Io = the initial fluorescence intensity of the EB–DNA adduct, and I is the fluorescence intensity of the EB–DNA adduct after the addition of the quencher (studied complexes), kq = the quenching rate constant, KSV = the Stern–Volmer constant, τo = the average fluorescence lifetime of the EB–DNA adduct (23 × 10^−9 s), [Q] = the quencher concentration, respectively, KSV (in M^−1) can be obtained by the slope of the Stern–Volmer plot and kq (in M^−1 s^−1) can be calculated from Equation (4):(4) KSV=kqτ0

Chain of bovine serum albumin (BSA) (P02769 25-607): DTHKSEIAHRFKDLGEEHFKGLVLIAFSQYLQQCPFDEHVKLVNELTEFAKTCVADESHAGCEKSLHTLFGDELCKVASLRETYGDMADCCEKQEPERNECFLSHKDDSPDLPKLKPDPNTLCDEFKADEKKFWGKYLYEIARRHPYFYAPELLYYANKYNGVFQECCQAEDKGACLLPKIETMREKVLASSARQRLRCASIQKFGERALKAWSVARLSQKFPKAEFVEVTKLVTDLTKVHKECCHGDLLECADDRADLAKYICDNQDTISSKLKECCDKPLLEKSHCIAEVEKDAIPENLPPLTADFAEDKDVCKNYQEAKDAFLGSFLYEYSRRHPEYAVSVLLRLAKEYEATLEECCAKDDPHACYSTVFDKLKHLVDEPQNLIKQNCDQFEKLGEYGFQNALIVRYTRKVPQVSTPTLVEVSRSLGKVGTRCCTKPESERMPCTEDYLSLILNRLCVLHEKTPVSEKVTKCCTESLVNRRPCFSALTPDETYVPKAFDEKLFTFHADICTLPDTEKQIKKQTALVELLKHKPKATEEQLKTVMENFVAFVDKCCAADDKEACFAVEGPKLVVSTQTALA

| SMILES | dynamic quenching constant Ksv [1] | quenching constant kq [1] | association binding constant KBSA [1] | n (number of binding sites for albumin) [1] | IC50 [2] | decrease of intensity (ΔA/A0), hypochromism (ct-DNA) | Stern–Volmer quenching constant Ksv (EB–DNA adduct (ct-DNA)) | quenching rate constant kq (EB–DNA adduct (ct-DNA)) | Δ I/I0, EB–DNA fluorescence quenching (EB–DNA adduct (ct-DNA)) |
| --- | --- | --- | --- | --- | --- | --- | --- | --- | --- |
| COc1ccc(CN=Cc2ccccc2[O-])cc1.COc1ccc(CN=Cc2ccccc2[O-])cc1.[Cl-].[Cl-].[Cu+2].[Cu+2] [Complex 4c, [Cu2 (Sal-4-MeOBn)2 Cl2]] | 4.86 (±0.15) M^−1 × 10^4 | 4.86 (±0.15) M^−1s^−1 × 10^12 | 4.77 (±0.20) M^−1 × 10^4 | 1.16 | 62.9 ± 6.2 µM | 28% | 3.82 (±0.12) M^−1 × 10^3 | 1.66 (±0.05) M^−1 s^−1 × 10^11 | 40.7% |
| COc1ccccc1CN=Cc1ccccc1[O-].COc1ccccc1CN=Cc1ccccc1[O-].[Cl-].[Cl-].[Cu+2].[Cu+2] [Complex 4a, [Cu2 (Sal-2-MeOBn)2 Cl2]] | 7.16 (±0.03) M^−1 × 10^4 | 7.16 (±0.03) M^−1s^−1 × 10^12 | 6.66 (±0.30) M^−1 × 10^4 | 1.03 | 65.9 ± 6.9 µM | 32% | 4.58 (±0.10) M^−1 × 10^3 | 1.98 (±0.05) M^−1 s^−1 × 10^11 | 45.7% |
| COc1cccc(CN=Cc2ccccc2[O][Cu][O]c2ccccc2C=NCc2cccc(OC)c2)c1 [Complex 4b, [Cu (Sal-3-MeOBn)2]] | 6.39 (±0.06) M^−1 × 10^4 | 6.39 (±0.06) M^−1s^−1 × 10^12 | 5.37 (±0.25) M^−1 × 10^4 | 0.94 | 44.3 ± 3.6 µM | 26% | 3.61 (±0.09) M^−1 × 10^3 | 1.56 (±0.04) M^−1 s^−1 × 10^11 | 40.1% |

Reference: article PMC12430429, “Synthesis, Structure, DNA/BSA Binding, DNA Cleaving, Cytotoxic and SOD Mimetic Activities of Copper(II) Complexes Derived from Methoxybenzylamine Schiff Base Ligands” (Molecules, 2025)
